Format in all cases: biochemical, bacterial isolate LBAA (Pseudomonas strain LBAA)
What all share (conditions): substrate glyphosate

In assay [1] the target is LBAA glyphosate oxidoreductase variant w1v2w3 (SER84, ARG153, HIS334) (Ochrobactrum sp. G-1, UniProt D2KI28, K153R/S2A). The assay is described as follows: Kinetic analysis of domain switches, clone w1v2w3. On the procedure: (§1) The mutagenesis procedure used was that of Mn++-poisoned PCR and the template was a linearized glyphosate oxidoreductase gene plasmid containing the synthetic glyphosate oxidoreductase gene (SEQ ID NO:8). The oligonucleotide primers used were homologous to regions in the vector and flanking the glyphosate oxidoreductase gene. The PCR conditions employed were as follows: 1 minute at 94° C., 2 minutes at 55° C., and 3 minutes at 72° C. and with 35 cycles. A 5:1 ratio of dCTP+dGTP+TTP to dATP was used. The reactions contained MnCl2 at 125, 250, 375, or 500 μM. After the reaction, the amplified product was recloned into a vector containing a weak E. coli promoter. This vector was a pBR327 derivative containing the araBAD promoter and suitable cloning sites. […] Growth rates were determined by measuring A550 over a 96 hour period. […] Protein concentrations were determined using the Bio-Rad protein dye-binding assay. […] Ten minutes was determined to be the optimal time for the enzyme assay using 10 μg lysate. […] Enzyme activity was determined from the amount of glyoxylate-DNPH adduct formed by measuring A520 against a standard of glyoxylate. […] The Km and Vmax were determined from Lineweaver Burk, Eadie-Hofstee and hyperbolic kinetic plots. […]

Assay [2] deals with LBAA glyphosate oxidoreductase variant w1v2v3 (SER84, ARG153, ARG334) (Ochrobactrum sp. G-1, UniProt D2KI28, H334R/K153R/S2A). The assay is described as follows: Kinetic analysis of domain switches, clone w1v2v3. The procedure: as §1
The target of assay [3] is LBAA glyphosate oxidoreductase variant w1w2v3 (SER84, LYS153, ARG334) (Ochrobactrum sp. G-1, UniProt D2KI28, H334R/S2A). The assay is described as follows: Kinetic analysis of domain switches, clone w1w2v3. The procedure: as §1
For assay [4], the target named is LBAA glyphosate oxidoreductase variant v1w2v3 (GLY84, LYS153, ARG334) (Ochrobactrum sp. G-1, UniProt D2KI28, H334R/S2A/S84G). The assay is described as follows: Kinetic analysis of domain switches, clone v1w2v3. The procedure: as §1
Assay [5] has as its target LBAA glyphosate oxidoreductase variant v1w2w3 (GLY84, LYS153, HIS334) (Ochrobactrum sp. G-1, UniProt D2KI28, S2A/S84G). As to the kind of experiment: Kinetic analysis of domain switches, clone v1w2w3. On the procedure:
as §1

On to `O=C(O)CNCP(=O)(O)O` [glyphosate, N-phosphonomethyl-glycine], for which the VmKm in assay [1] is reported as 0.026; in assay [2], 0.28; in assay [3], 0.375; in assay [4], 0.21; in assay [5], 0.027.
